For 18 compounds, EC50 results are on record in patent US20200055817A1 (AbbVie Deutschland GmbH & Co. KG, priority 2016, published 2020).

What is called EC50 is the midpoint of the concentration-response curve.

Assay type in all cases: cell-based
Experiment [1] addresses T1, human EDG8 (S1PR5) receptor (Homo sapiens, UniProt Q9H228).
T1 construct: carries the transgenes human EDG8 (S1PR5) receptor (Acession number NP_110387.1); expressed in transfected cells; host or cells: CHO-A21-EDG8#12 (CHO clone co-expressing mitochondrial aequorin and chimaeric Gaqi5)
As to the kind of experiment: Aequorin assay, agonist potency, CHO-A21-EDG8#12 cells. The settings on record: agonist mode, aequorin luminescence; read-out: S1P5 EC50 range #. The method, then:
(§1) Agonistic activity was measured as described below.
(§2) Cell clone CHO-A21-Edg1#17 carries the transgenes human EDG1 (S1PR1) receptor (Accession number NP_001391.2), mitochondrially targeted Aequorin (active part corresponds to accession number 1SL8_A) and chimaeric Gaqi5=Gaq modified with the 5 C-terminal amino-acids replaced with those of the Gai protein (DCGLF). CHO-A2-S1P3 Mix is a cell pool ectopically expressing human EDG3 (S1PR3) receptor (Accession number NP_005217.2) mitochondrially targeted Aequorin (active part has a sequence similar to accession number AY601106.1) and GNA16 (Accession number NP_002059.3). Cell clone CHO-A21-EDG8#12 carries the transgenes human EDG8 (S1PR5) receptor (Acession number NP_110387.1), mitochondrially expressed Aequorin (active part corresponds to accession number 1SL8_A) and chimaeric Gaqi5 (Gaq modified to present the 5 last amino-acids of the Gai protein “DCGLF”; see above). Cells are grown to mid-log phase in culture medium (HAM's F12, 10% FBS, 100 IU/mL penicillin, 100 μg/mL streptomycin, 250 μg/mL Zeocin, 400 μg/mL G418). 18 hours prior to frozen cells preparation, the medium is changed to remove the antibiotics.
(§3) 18 hours prior to the test, vials of frozen cells are quickly thawed in a 37° C. water bath, cells are recovered by centrifugation and resuspended in assay buffer (DMEM/HAM's F12 with HEPES, without phenol red+0.1% fatty acid-free BSA). Cells are gently agitated in suspension overnight at RT in presence of 5 μM of Coelenterazine h (Molecular Probes). On the day of the test, cells are diluted to their final working concentrations in assay buffer and agitated in suspension for 1 h at RT. Cells are then placed in the luminescence reader (Hamamatsu Functional Drug Screening System 6000, FDSS6000). During cells incubation, compounds are prepared in 100% DMSO, and subsequently diluted in assay buffer. Compounds are then dispensed in the assay plate (black, clear-bottom, 384-well plate). After binding of agonists to the human S1P receptor the intracellular calcium concentration increases and binding of calcium to the Aequorin/Coelenterazine complex leads to an oxidation reaction of coelenterazine, which results in the production of Aequorin, coelenteramide, CO2 and light (Dmax 469 nm). The luminescent response is dependent on the agonist concentration. For agonist testing, 30 μL of cell suspension are injected on 30 μL of test compound or reference agonist in the assay plate. The resulting emission of light is recorded for 90 seconds using the FDSS6000. Dose response curves with the reference compounds are performed before testing the compounds. S1P is the reference agonist and JTE-013 the reference antagonist for S1P2.
(§4) Luminescence data are integrated over the reading interval for agonist and antagonist modes. To standardize the emission of recorded light (determination of the “100% signal”) across plates and across different experiments, some of the wells contain 100 μM digitonin or a saturating concentration of ATP (20 μM). Plates also contain the reference agonist at a concentration equivalent to the EC80 obtained during the test validation and the EC100. Dose-response data from test compounds were analyzed with XLfit (IDBS) software using nonlinear regression applied to a sigmoidal dose-response model and the following equation: […]

Experiment [2] concerns the target T2, human EDG1 (S1PR1) receptor (Homo sapiens, UniProt P21453).
T2 construct: expressed in transfected cells; host or cells: CHO-A21-Edg1#17 (CHO clone co-expressing mitochondrial aequorin and chimaeric Gaqi5)
As to the kind of experiment: Aequorin assay, agonist potency, CHO-A21-Edg1#17 cells. The settings on record: agonist mode, aequorin luminescence; read-out: S1P1 EC50. The method, then: as §1, §2, §3, §4

A further experiment addresses T3, S1P4 (Homo sapiens, UniProt O95977).
T3 sequence (O95977 1-384): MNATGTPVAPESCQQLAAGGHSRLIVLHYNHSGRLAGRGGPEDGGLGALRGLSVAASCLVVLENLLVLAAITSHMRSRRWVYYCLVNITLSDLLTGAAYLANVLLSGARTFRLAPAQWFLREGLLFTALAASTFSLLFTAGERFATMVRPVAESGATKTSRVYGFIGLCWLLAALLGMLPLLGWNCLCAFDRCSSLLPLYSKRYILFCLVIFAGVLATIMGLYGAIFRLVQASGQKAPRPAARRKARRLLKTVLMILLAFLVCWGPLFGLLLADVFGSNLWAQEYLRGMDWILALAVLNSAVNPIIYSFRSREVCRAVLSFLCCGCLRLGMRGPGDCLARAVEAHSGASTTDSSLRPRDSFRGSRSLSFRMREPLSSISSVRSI
As to the kind of experiment: Aequorin assay, agonist potency, S1P4. The settings on record: agonist mode, aequorin luminescence. The method, then:
as §1, §3, §4

T1 sequence (Q9H228 whole entry): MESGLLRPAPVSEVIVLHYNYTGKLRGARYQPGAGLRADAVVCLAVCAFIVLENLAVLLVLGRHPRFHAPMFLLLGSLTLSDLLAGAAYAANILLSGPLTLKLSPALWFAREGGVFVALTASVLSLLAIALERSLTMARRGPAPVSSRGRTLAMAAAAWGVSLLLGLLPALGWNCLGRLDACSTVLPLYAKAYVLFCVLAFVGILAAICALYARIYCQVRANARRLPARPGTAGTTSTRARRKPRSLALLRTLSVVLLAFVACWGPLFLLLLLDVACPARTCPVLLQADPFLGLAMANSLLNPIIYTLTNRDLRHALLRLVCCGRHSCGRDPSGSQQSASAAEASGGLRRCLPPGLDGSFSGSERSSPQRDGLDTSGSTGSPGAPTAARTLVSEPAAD
T2 sequence (P21453 whole entry): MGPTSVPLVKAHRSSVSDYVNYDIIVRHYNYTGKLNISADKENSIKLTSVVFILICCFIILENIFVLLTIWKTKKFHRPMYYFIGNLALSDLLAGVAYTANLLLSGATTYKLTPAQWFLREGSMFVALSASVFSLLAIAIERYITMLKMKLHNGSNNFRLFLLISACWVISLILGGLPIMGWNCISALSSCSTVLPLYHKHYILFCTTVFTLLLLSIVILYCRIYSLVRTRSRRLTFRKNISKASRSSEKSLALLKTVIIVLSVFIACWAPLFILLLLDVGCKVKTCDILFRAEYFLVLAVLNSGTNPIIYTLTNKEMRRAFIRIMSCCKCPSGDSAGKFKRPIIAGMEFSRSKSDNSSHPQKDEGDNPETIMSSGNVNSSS

In the case of `O=C(O)CN1CC2(Cc3ccc(OCc4cccc5c4OCC5)cc3C2)C1` [Example 72, 2-(5′-((2,3-dihydrobenzofuran-7-yl)methoxy)-1′,3′-dihydrospiro[azetidine-3,2′-inden]-1-yl)acetic acid], the figures for the EC50 (in experiment [1]; in experiment [2]; on S1P4) were 0.1 to 1 µM, over 1 µM and under 1 µM, respectively.
The matching figures for `O=C(O)CN1CC2(Cc3ccc(C#Cc4ccc(OC5CCCC5)nc4)cc3C2)C1` [Example 78, 2-(5′-((6-(cyclopentyloxy)pyridin-3-yl)ethynyl)-1′,3′-dihydrospiro[azetidine-3,2′-inden]-1-yl)acetic acid]: at most 0.01 µM, under 1 µM and under 1 µM.
On the same counts, the results for `O=C(O)CN1CC2(Cc3ccc(OCc4ccccc4C(F)(F)F)cc3C2)C1` [Example 12, 2,2,2-trifluoroacetic acid compound with 2-(5′-((2-(trifluoromethyl)benzyl)oxy)-1′,3′-dihydrospiro[azetidine-3,2′-inden]-1-yl)acetic acid (1:1)] are 0.01 to 0.1 µM, over 1 µM and under 1 µM.
The matching figures for `COc1ccc(CCOc2ccc3c(c2)CC2(C3)CN(CC3(C(=O)O)CC3)C2)cc1` [Example 135, 1-((5′-(4-methoxyphenethoxy)-1′,3′-dihydrospiro[azetidine-3,2′-inden]-1-yl)methyl)cyclopropanecarboxylic acid]: 1 to 10 µM, over 1 µM and over 1 µM.
For the compound `O=C(O)C1(CN2CC3(Cc4ccc(OCc5cc(F)ccc5C(F)(F)F)cc4C3)C2)CC1` [Example 43, 1-((5′-((5-fluoro-2-(trifluoromethyl)benzyl)oxy)-1′,3′-dihydrospiro[azetidine-3,2′-inden]-1-yl)methyl)cyclopropanecarboxylic acid Compound with 2,2,2-trifluoroacetic acid (1:1)], the EC50 in experiment [1] is 1 to 10 µM; in experiment [2], over 1 µM; on S1P4, under 1 µM.
The matching figures for `O=C(O)C1(CN2CC3(Cc4ccc(OC5CCc6ccccc65)cc4C3)C2)CC1` (stereo not drawn) [Example 130, 1-((5′-((2,3-dihydro-1H-inden-1-yl)oxy)-1′,3′-dihydrospiro[azetidine-3,2′-inden]-1-yl)methyl)cyclopropanecarboxylic acid]: 1 to 10 µM, over 1 µM and under 1 µM.
In the case of `CCc1cccc(Cl)c1COc1ccc2c(c1)OC1(C2)CN(CC(C)CC(=O)O)C1` (stereo not drawn) [Example 157, 4-(6′-((2-chloro-6-ethylbenzyl)oxy)-3′H-spiro[azetidine-3,2′-benzofuran]-1-yl)-3-methylbutanoic acid], the values for the concentration for a half-maximal effect (EC50) (in experiment [1]; in experiment [2]; at S1P4) were at most 0.01 µM, over 1 µM and under 1 µM, respectively.
The matching figures for `O=C(O)C1CC(N2CC3(Cc4ccc(C#Cc5ccc(OCC6CC6)nc5)cc4C3)C2)C1` (stereo not drawn) [Example 99, 3-(5′-((6-(cyclopropylmethoxy)pyridin-3-yl)ethynyl)-1′,3′-dihydrospiro[azetidine-3,2′-inden]-1-yl)cyclobutanecarboxylic acid]: 0.1 to 1 µM, under 1 µM and over 1 µM.
The matching figures for `O=C(O)CN1CC2(Cc3ccc(OC4CCc5ccccc54)cc3C2)C1` (stereo not drawn) [Example 66, 2-(5′-((2,3-dihydro-1H-inden-1-yl)oxy)-1′,3′-dihydrospiro[azetidine-3,2′-inden]-1-yl)acetic acid]: at most 0.01 µM, over 1 µM and under 1 µM.
`CC(C)Oc1ccc(C#Cc2ccc3c(c2)CC2(C3)CN(CC3(C(=O)O)CC3)C2)cc1` [Example 113, 1-((5′-((4-isopropoxyphenyl)ethynyl)-1′,3′-dihydrospiro[azetidine-3,2′-inden]-1-yl)methyl)cyclopropanecarboxylic acid]: the EC50 in experiment [1] is at most 0.01 µM; in experiment [2], under 1 µM; on S1P4, over 1 µM.
`O=C(O)CN1CC2(Cc3ccc(OCc4ccc(Br)cc4Cl)cc3C2)C1` [Example 22, 2-(5′-((4-bromo-2-chlorobenzyl)oxy)-1′,3′-dihydrospiro[azetidine-3,2′-inden]-1-yl)acetic acid]: the 50% effective concentration (EC50) in experiment [1] was 0.01 to 0.1 µM; in experiment [2], over 1 µM; on S1P4, under 1 µM.
The matching figures for `Cc1cccc(CCCOc2ccc3c(c2)CC2(C3)CN(CC3(C(=O)O)CC3)C2)n1` [Example 146, 1-((5′-(3-(6-methylpyridin-2-yl)propoxy)-1′,3′-dihydrospiro[azetidine-3,2′-inden]-1-yl)methyl)cyclopropanecarboxylic acid]: 1 to 10 µM, over 1 µM and over 1 µM.
On the same counts, the results for `CC(Oc1ccc(C#Cc2ccc3c(c2)CC2(C3)CN(CC(=O)O)C2)cn1)C(F)(F)F` (stereo not drawn) [Example 79, 2-(5′-((6-((1,1,1-trifluoropropan-2-yl)oxy)pyridin-3-yl)ethynyl)-1′,3′-dihydrospiro[azetidine-3,2′-inden]-1-yl)acetic acid] are at most 0.01 µM, under 1 µM and under 1 µM.
For `O=C(O)CN1CC2(Cc3ccc(OCc4cc(F)ccc4C(F)(F)F)cc3C2)C1` [Example 27, 2-(5′-((5-fluoro-2-(trifluoromethyl)benzyl)oxy)-1′,3′-dihydrospiro[azetidine-3,2′-inden]-1-yl)acetic acid], the figures for the EC50 (in experiment [1]; in experiment [2]; at S1P4) were at most 0.01 µM, over 1 µM and under 1 µM, respectively.
The matching figures for `CCc1cccc(Cl)c1COc1ccc2c(c1)OC1(C2)CN(CC(=O)O)C1` [Example 158, 2-(6′-((2-chloro-6-ethylbenzyl)oxy)-3′H-spiro[azetidine-3,2′-benzofuran]-1-yl)acetic acid]: at most 0.01 µM, under 1 µM and under 1 µM.
On to `O=C(O)CN1CC2(Cc3ccc(OC4Cc5ccccc5C4)cc3C2)C1` [Example 73, 2-(5′-((2,3-dihydro-1H-inden-2-yl)oxy)-1′,3′-dihydrospiro[azetidine-3,2′-inden]-1-yl)acetic acid], for which the EC50 is 0.1 to 1 µM in experiment [1], over 1 µM in experiment [2] and under 1 µM on S1P4.
The matching figures for `Cc1ccccc1COc1ccc2c(c1)CC1(C2)CN(CC2(C(=O)O)CC2)C1` [Example 138, 1-((5′-((2-methylbenzyl)oxy)-1′,3′-dihydrospiro[azetidine-3,2′-inden]-1-yl)methyl)cyclopropanecarboxylic acid]: 1 to 10 µM, over 1 µM and under 1 µM.
For `CC1CCC(C#Cc2ccc3c(c2)CC2(C3)CN(CC(=O)O)C2)CC1` (stereo not drawn) [Example 76, 2-(5′-((4-methylcyclohexyl)ethynyl)-1′,3′-dihydrospiro[azetidine-3,2′-inden]-1-yl)acetic acid], the concentration giving a half-maximal response (EC50) is at most 0.01 µM in experiment [1], over 1 µM in experiment [2] and under 1 µM at S1P4.
